Measurements published in the NIST ThermoML archive (doi:10.1021/je900414p).

Assay: xn = mol fraction of the nth substance listed
Conditions: 283.15 K, Liquid

CCOS(=O)(=O)[O-].CCn1cc[n+](C)c1 [1-ethyl-3-methylimidazolium ethyl sulfate] + CCO
mass density [kg/m3]
Conditions	100 kPa	2500 kPa	5000 kPa	10000 kPa	15000 kPa	20000 kPa	25000 kPa	30000 kPa	35000 kPa
x1 = 0.05056	868.1	870	871.83	875.33	878.74	882.02	885.17	888.22	891.19
x1 = 0.103	925.77	927.45	929.13	932.41	935.57	938.63	941.59	944.47	947.26
x1 = 0.1247	946.96	948.54	950.16	953.34	956.4	959.38	962.25	965.06	967.8
x1 = 0.2126	1015.49	1016.98	1018.48	1021.37	1024.17	1026.89	1029.52	1032.11	1034.62
x1 = 0.2919	1063.41	1064.67	1066.03	1068.69	1071.27	1073.82	1076.29	1078.72	1081.08
x1 = 0.3185	1076.89	1078.19	1079.51	1082.11	1084.66	1087.15	1089.57	1091.95	1094.27
x1 = 0.4198	1120.15	1121.36	1122.61	1125.05	1127.44	1129.77	1132.05	1134.29	1136.48
x1 = 0.4847	1142.52	1143.68	1144.88	1147.23	1149.51	1151.78	1153.99	1156.16	1158.29
x1 = 0.5713	1167.9	1169.02	1170.16	1172.41	1174.61	1176.78	1178.91	1181.01	1183.08
x1 = 0.6827	1194.68	1195.76	1196.85	1199	1201.12	1203.21	1205.24	1207.27	1209.25
x1 = 0.7919	1216.13	1217.15	1218.19	1220.26	1222.32	1224.34	1226.31	1228.28	1230.19
x1 = 0.9317	1237.97	1238.92	1239.94	1241.93	1243.92	1245.88	1247.81	1249.69	1251.56
